Experiments:
[1] = test system: Colo205 tumor cell lines; assay: Methylene blue growth inhibition assay (cellular Method A); assay type: cell-based; conditions: Homo sapiens, COLO 205, 72 h, Table 3, Method A methylene blue, 3 days
Description: (§1) Human breast (BT474) and head and neck (HN5) were cultured in low glucose DMEM (Life Technologies 12320-032) containing 10% fetal bovine serum (FBS). Human colon tumor cells (Colo205) were cultured in DMEM (Invitrogen, 10564) containing 10% FBS. The SV40 transformed human mammary epithelial cell line to HB4a was transfected with either human H-ras cDNA (HB4a r4.2) or the human c-ErbB2 cDNA (HB4a c5.2). The HB4a clones were cultured in RPMI containing 10% FBS, insulin ([…]), hydrocortisone ([…]), supplemented with the selection agent hygromycin B ([…]). All lines were grown in a humidified incubator at 37° C. in 95% air, 5% CO2. Cells were harvested using trypsin/EDTA, counted using a haemocytometer, and plated in 100 microliters of the appropriate media, at the following densities, in a 96-well tissue culture plate (Falcon 3075): BT474 10,000 cells/well, HN5 3,000 cells/well. The next day, compounds were diluted in DMEM containing […] gentamicin, at twice the final required concentration, from 10 mM stock solutions in DMSO. 100 microliters/well of these dilutions were added to the 100 microliters of media currently on the cell plates. Medium containing 0.6% DMSO was added to control wells. Compounds diluted in DMEM were added to all cell lines. The final concentration of DMSO in all wells was 0.3%. Cells were returned to the incubator (37° C., […]) for 3 days. Medium was then removed by aspiration. Cell biomass was estimated by staining cells with 90 microliters per well methylene blue (Sigma M9140, 0.5% in 1:1 ethanol:water), and incubation at rt for at least 30 minutes. Stain was removed, and the plates rinsed by immersion in deionized water and air-dried. To release stain from the cells 100 microliters of solubilization solution was added (1% N-lauroyl sarcosine, Sodium salt, Sigma L5125, in PBS), and plates were shaken gently for about 30 minutes. Optical density at 620 nm was measured on a microplate reader. Percent inhibition of cell growth was calculated relative to vehicle treated control wells. Concentration of compound that inhibits 50% of control cell growth (IC50) was interpolated using nonlinear regression (Levenberg-Marquardt) and the equation, y=Vmax*(1−(x/(K+x)))+Y2, where “K” was equal to the IC50. Method B: Celltiter Glo® Growth Inhibition Assays

[2] = test system: BT474 and HN5 tumor cell lines; assay: as above; assay type: cell-based; conditions: Homo sapiens, BT-474 and HN5, 72 h; Table 2, Method A methylene blue, 3 days; class over BT474 and HN5;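 further: class counts the more potent of the two cell lines (BT474 or HN5)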
Description: as §1

[3] = biological target: T1, ErbB2 or EGFR; assay: ErbB enzyme substrate phosphorylation assay (HTRF), Method A; assay type: biochemical; conditions: Table 1, enzyme Method A: substrate mix added first, reaction started with enzyme mix; class over ErbB2 or EGFR
T1 construct: enzymes purified from a baculovirus expression system
Description: Compounds of the present invention were tested for EGFR, ErbB-2, and ErbB-4 protein tyrosine kinase inhibitory activity in substrate phosphorylation assays using enzymes purified from a baculovirus expression system. Reagent production was conducted essentially as described in Brignola, P. S., et al, (2002) J. Biol. Chem. 277(2): 1576-1585.
The method measures the ability of the isolated enzyme to catalyse the transfer of the gamma-phosphate from ATP onto the tyrosine residue of a biotinylated synthetic peptide referenced “Peptide C” in Brignola, P. S., et al, (2002) J. Biol. Chem. 277(2):1576-1585. The extent of tyrosine phosphorylation was measured using an anti-phosphotyrosine antibody, and quantified by homogenous time-resolved fluorescence (HTRF).
Reactions were performed in black 384-well polystyrene flat-bottom plates in a final volume of 20 μl. Assays were performed by adding 10 μl of each of the following solutions, substrate Mix and enzyme mix: The Substrate mix contained 100 mM 3-[N-morpholino]propanesulfonic acid (MOPS) (pH 7.5), 2 mM MnCl2, 20 μM ATP, 0.01% Tween-20, 0.1 mg/mL (BSA), 0.8 uM peptide substrate, and 1 mM dithiothreitol. The enzyme mix contained 100 mM MOPS (pH7.5); 0.01% Tween-20; 0.1 mg/mL BSA, and either 0.8 nM EGFR, 10 nM ErbB2, or 1 nM ErbB4
During the course of these studies, two separate methods have been used to measure the potency of compounds. In Method A, the substrate mix was added to the compound plates first, then the reaction was started by adding the enzyme mix. In Method B, the enzyme mix was added to the compound plates and the plates were incubated at 20° C. for 1 hour. The reactions were then started by adding the substrate mix.
After initiating the reaction with either method describe above, the reactions were allowed to proceed for 90 minutes at 20° C. The reactions were then terminated by the addition of 20 μl 100 mM EDTA to each well. 40 μl/well of HTRF detection mix were added to the assay plates. The final concentrations of the detection reagents were: 100 mM HEPES (pH7.5), 0.1 mg/mL BSA, 15 nM streptavidin-labeled allophycocyanin (PerkinElmer), and 1 nM europium-labeled anti-phosphotyrosine antibody (PerkinElmer). Assay plates were left unsealed and were counted in a Wallac Multilabel Counter 1420 (PerkinElmer). […]
The data for dose responses were plotted as % Inhibition calculated with the data reduction formula 100*(1−(U1−C2)/(C1−C2)) versus concentration of compound where U is the unknown value, C1 is the average control value obtained for 4.76% DMSO, and C2 is the average control value obtained for 0.035 M EDTA. […] The results for each compound were recorded as pIC50s, calculated as follows: pIC50=−Log 10(K)

IC50 [1]: > 1000 nM
IC50 [2]: > 1000 nM
SMILES: O=C(Cc1ccccc1)Nc1cccc(-c2nn3ccccc3c2-c2ccnc(Nc3ccccc3)n2)c1 [Example 3, 2-Phenyl-N-(3-{3-[2-(phenylamino)-4-pyrimidinyl]pyrazolo[1,5-a]pyridin-2-yl}phenyl)acetamide]
Activity (Method) [3]: ++ (A) (at least one pIC50 measurement greater than 6 against either ErbB2 or EGFR but no measurement greater than pIC50 of 7)

Reference: US7807673B2, “2-pyrimidinyl pyrazolopyridine ErbB kinase inhibitors” (GlaxoSmithKline LLC, priority 2005, dated 2010)
